Patent US20240391880A1, “KCa3.1 INHIBITORS FOR PODOCYTE PROTECTION” (Icahn School of Medicine at Mount Sinai, priority 2021, published 2024)
Entries after “also recorded” stand apart in the source; their conditions may differ.

Key:
[1] = tested on: podocytes; test: LPS-induced podocyte injury in vitro; assay type: cell-based, mouse; conditions: LPS 100 μg/ml for 24 hrs, co-treatment
Protocol: (§1) The ability of KCa3.1 inhibitors to protect from podocyte injury induced by lipopolysaccharide (LPS) was tested in vitro and in vivo. […] The protective effect was tested in vivo by administering LPS to 8-week old C57BL/6J mice at 0 hr and 24 hrs.
Differentiated podocytes were exposed to different doses of LPS (50-100 μg/ml) for 24 hours. Changes in the organization of the actin cytoskeleton were assessed by phalloidin staining and paxillin staining as described previously. Each set of experiments was repeated at least three times. Briefly, cells were fixed with 4% PFA, 4% sucrose in PBS at room temperature for 15 minutes and then permeabilized with 0.3% Triton X-100 in PBS with washes in between. Coverslips were washed 3× with PBS and incubated blocking solution (2% FCS, 2% BSA, 0.2% fish gelatin) for 30 minutes at room temperature before further incubation with one of the primary antibodies for 1 hour at room temperature. For double labeling, sections were washed three times with PBS for 5 minutes, and the second primary antibody was applied for 60 minutes. Antigen-antibody complexes were visualized with secondary antibodies 1:500 (Life Technologies) conjugated with fluorochrome (Alexa 488, Alexa 594, or Alexa 647) for 1 hour at room temperature. For stress fibers, phalloidin-rhodamine was used. For the nuclei, we used DAPI. Confocal microscopy with Leica DMI was done.

[2] = tested on: YAP knockdown podocytes; test: Rescue of YAP knockdown podocyte morphology (phalloidin/paxillin staining); assay type: cell-based, mouse
Protocol: Podocytes were cultured as previously described (2, 14, 35). Briefly, conditionally immortalized murine podocytes were cultured in Dulbecco's modified Eagle's medium (DMEM; Life Technologies) supplemented with 10% heat-inactivated fetal bovine serum (Life Technologies) and 100 U/mL penicillin-streptomycin (Life Technologies) on type I collagen (Corning, Corning, NY) coated dishes or flasks. Undifferentiated podocytes were maintained at 33° C. in the presence of 10 U/mL mouse γ-interferon (Cell Sciences, Canton, MA) to drive T-antigen expression. To induce differentiation, podocytes were thermo-shifted to a 37° C. incubator and switched to medium lacking γ-interferon.
The pLKO.1 plasmids (YAP shRNA or control shRNA) along with the helper plasmids psPAX^2 and pMD2.G were transfected into HEK293T cells at 70% confluence using FuGENE 6 (Promega). Medium was replaced 16-18 h after transfection. 36 and 60 h after transfection, virus-containing supernatants were harvested and centrifuged at 3,000 rpm for 5 min. Viral particles were then passed through a 0.45-μm filter. The supernatants were subsequently used for the infection of target cells in the presence of 4 μg/ml Polybrene (Sigma). […]
Changes in the organization of the actin cytoskeleton were assessed by phalloidin staining and paxillin staining as described previously. […]

[3] = tested on: C57BL/6J mice; test: LPS-induced glomerular disease in mice; assay type: in vivo, mouse; conditions: for albuminuria: 48 hours after LPS injection, compound given at 12 hr and 24 hr
Protocol: as §1
Albuminuria was qualitatively screened using a 10% SDS-PAGE gel followed by Coomassie-blue staining. BSA standards of 0.1, 0.5, 5 μg were used and 5 μl urine was used from each sample to quantify urine albumin in duplicate using commercial kits, according to the manufacturer's protocol (mouse albumin ELISA, Bethyl Laboratories).

[4] = target: T1, KCa3.1 (Homo sapiens, UniProt O15554); test: Whole-cell patch clamp electrophysiology in KCNN4 overexpression podocytes; assay type: cell-based, mouse; conditions: KCNN4 OE podocytes
T1 construct: expressed in transfected cells; host or cells: immortalized mouse podocytes (KCNN4 OE)
Protocol: (§2) Cells plated on coverslips are transferred to a submersion recording chamber and continuously perfused (2-4 ml/min) with RPMI cell culture medium containing (in mM): NaCl 124, KCl 2.5, NaH2PO4 1.2, NaHCO3 24, HEPES 5, glucose 12.5, MgSO4 2, and CaCl2 2, pH 7.4. The solution is continuously bubbled with 95% O2/5% CO2, and recordings are obtained at 25±1° C. Cells are recorded under infrared differential contrast optics (BX51; Olympus). After control readings are measured, the solution is then switched to the solutions containing the molecules. […] Recording pipettes (3-5 MΩ), pulled from borosilicate glass, are filled with internal solution containing (in mM): K gluconate 120, HEPES 10, KCl 20, MgCl2 1, MgATP 2, Na2GTP 0.5, Na-phosphocreatine 10, CaCl2 1.71 and EGTA 2, pH 7.25. Data are acquired with a Multiclamp 700 A amplifier (Molecular Devices), subsequently filtered at 10 kHz and digitized at 10 kHz, and analysis is performed with pClamp 11 software (Molecular Devices). Whole-cell data will be collected. All data will be recorded at room temperature.

[5] = target: T2, KCa3.1 (Mus musculus, UniProt O89109); test: Whole-cell patch clamp electrophysiology in YAP silenced podocytes; assay type: cell-based
T2 construct: endogenous in cells; host or cells: YAP shRNA (YAP KD) conditionally immortalized mouse podocytes
Protocol: as §2

[6] = tested on: YAP KD podocytes; test: Intracellular calcium dynamics in YAP KD podocytes (Fluo-3, ATP stimulation); assay type: cell-based, mouse; conditions: for CaD50 / time to peak of calcium uptake: YAP silenced podocytes, upon ATP stimulation
Protocol: Intracellular calcium dynamics were measured in wild type and YAP KD podocytes loaded with Fluo-3, stimulated with ATP ([…]) and imaged for 3 minutes at 1 frame per 0.5 seconds on a high-speed Zeiss 880 laser scanning confocal microscope with automated CO2incubator stage.
Isolated cells were superfused with Tyrode solution containing (mm): NaCl 140, KCl
5, Hepes 5, NaH2PO4 1, MgCl2 1, CaCl2 1.8, glucose 10 (pH 7.4). To allow for confocal imaging of [Ca^2+]i, cells were loaded for 30 min with 5 μm fluo-3 AM (Molecular Probes, Eugene, OR, USA), then washed and stored for 20 min in Tyrode solution to enable dye de-esterification. Confocal imaging in line-scan mode was performed on a Zeiss 510 microscope. Cells were scanned with light at 488 nm from an argon-ion laser, and fluorescence above 505 nm was recorded. To generate repeated Ca^2+ sparks at a limited number of locations, 50 nm ryanodine (Calbiochem, San Diego, CA, USA) was added to the external solution.

[7] = expected K+ equilibrium (VK) calculated at -83 mV

Row | KCa3.1 conductance [4] | KCa3.1 conductance [5] | stimuli to peak ([6]; YAP knockdown cells, 5uM and 10 uM) | CaD50 [6] | time to peak of calcium uptake [6] | SMILES | LPS-induced actin cytoskeletal reorganization and loss of focal adhesions [1] | rescue from focal adhesion loss and F-actin reorganization [2] | albuminuria [3] | foot process injury (scanning EM) ([3]; LPS treated mice) | crossover potential of before and after I-V plots [5, 7] | crossover potential of before and after I-V plots [4, 7]
1 | decreased KCa3.1 conductance | decreased KCa3.1 conductance | significantly decreased | decreased | decreased | Brc1ccccc1-c1nc2ccccc2[nH]1 [BT563, 2-(2-bromophenyl)-1H-benzo[d]imidazole] | abrogated | most consistently rescued | statistically significant decrease; also recorded: decreased albuminuria | not seen; also recorded: rescue of LPS-induced podocyte foot process disruption | closer to the expected K+ equilibrium (VK) | 
2 | decreased KCa3.1 conductance | decreased KCa3.1 conductance |  | decreased | decreased | Cc1ccn2cc(-c3ccccc3)nc2c1 [BT564, 7-methyl-2-phenylimidazo[1,2-α]pyridine] | abrogated | most consistently rescued | not |  |  | 
3 | enhanced | enhanced |  |  |  | Cc1cc2nc(N)oc2c2ccccc12 [SKA121, reference compound] |  |  |  |  |  | 

Row | SMILES | KCa3.1 conductance [4] | KCa3.1 conductance [5] | stimuli to peak ([6]; YAP knockdown cells, 5uM and 10 uM) | CaD50 [6] | time to peak of calcium uptake [6] | LPS-induced actin cytoskeletal reorganization and loss of focal adhesions [1] | rescue from focal adhesion loss and F-actin reorganization [2] | albuminuria [3] | foot process injury (scanning EM) ([3]; LPS treated mice) | crossover potential of before and after I-V plots [5, 7] | crossover potential of before and after I-V plots [4, 7]
4 | Clc1ccccc1C(c1ccccc1)(c1ccccc1)n1cccn1 [TRAM-34, reference compound] | decreased | decreased |  | decreased | decreased |  |  |  |  |  | did cross at the expected K+ equilibrium
